Assay results from EPA's ToxValDB 9.5 (doi:10.2903/j.efsa.2017.4912).
In brackets after ≈: the same amount, converted by molar mass.

Assays:
Rattus norvegicus = conditions: for NOAEL: body weight
Typhlodromus pyri = experiment: LR50; higher = less toxic; conditions: not reported; duration: 7 days; mortality
Cyprinodon variegatus = conditions: chronic/long-term; duration: 28 days; other
Tagia sp. = conditions: chronic/long-term; duration: 56 days
Oncorhynchus mykiss = conditions: acute; duration: 96 hours; mortality
Anas platyrhynchos = conditions: reproductive; duration: 21 weeks; M; reproduction
Apis mellifera = conditions: acute, duration: 48 hours, mortality
Folsomia candida = conditions: chronic/long-term; duration: 28 days

Row | Structure (SMILES) | NOAEL (Oryctolagus sp.; developmental, development) [mg/kg-day] | NOAEL (Rattus norvegicus; chronic, duration: 2 years) [mg/kg-day] | LR50 (Typhlodromus pyri) [g/ha] | NOAEL (Oryctolagus sp.; reproduction developmental, mortality) [mg/kg-day] | NOEC (Cyprinodon variegatus) [mg/L] | NOEC (Tagia sp.) [mg/kg] | LC50 (Oncorhynchus mykiss) [µg/mL] | NOEL (Anas platyrhynchos) [mg/kg-day] | LD50 (Apis mellifera; dermal) [µg/piece] | LD50 (Apis mellifera; oral, unspecified) [µg/piece] | LD50 (Colinus virginianus; acute, oral, mortality) [mg/kg-day] | NOEL (Colinus virginianus; reproduction developmental, duration: 23 weeks, reproduction) [mg/kg-day] | LD50 (Rattus norvegicus; acute, oral, mortality) [mg/kg-day] | NOAEL (Rattus norvegicus; reproduction developmental) [mg/kg-day] | NOAEL (Rattus norvegicus; subchronic, duration: 90 days, oral) [mg/kg-day] | NOEC (Folsomia candida) [mg/kg]
1 | COC(=O)c1ccccc1S(=O)(=O)NC(=O)Nc1nc(C)nc(OC)n1 [Metsulfuron-methyl] | 25 | 22.4 | – | – | – | – | – | – | – | – | – | – | – | – | – | –
2 | COC(=O)c1ccccc1S(=O)(=O)NC(=O)N(C)c1nc(C)nc(OC)n1 [Tribenuron-methyl] | – | 1 | > 29.6 | 20 | 11.9 | 3.2 | 738 (≈ 1870 µM) | 21 | > 98.4 | > 9.1 | > 2250 | 21 | > 5000 | 2 | 7 | 30.8
